From ChEMBL document CHEMBL1201862, “PubChem BioAssay data set” (2004)
Active and inactive are the calls of the source.

Columns and labels:
HEK293 [1] = assay: cells; details: Homo sapiens
[2] = non-specific 3'UTR reporter inhibition in Clone20-Shn3RL – cell-based, Renilla luciferase, cherry-picked, counter-screen for Shn3 inhibitor project, dose response (AID 624133); assay type: functional
[3] = loss of viability in HepG2 cells – cell-based, CellTiter-Glo, cherry-picked, cytotoxicity control for Shn3 inhibitor project, dose response (AID 624134); assay type: functional
HEK293 [4] = assay: cells; details: Homo sapiens; remark: listed apart in the source
Protein RecA = target: T1, Protein RecA (Mycobacterium tuberculosis, UniProt P9WHJ3); assay: Fluorescence Cell-Free Homogeneous Dose Retest to Identify Inhibitors of RecA-Intein Splicing Activity. [Related pubchem assays (depositor defined):AID2097, AID2223, AID489010, AID492950]; assay type: functional
T1 sequence (P9WHJ3 whole entry): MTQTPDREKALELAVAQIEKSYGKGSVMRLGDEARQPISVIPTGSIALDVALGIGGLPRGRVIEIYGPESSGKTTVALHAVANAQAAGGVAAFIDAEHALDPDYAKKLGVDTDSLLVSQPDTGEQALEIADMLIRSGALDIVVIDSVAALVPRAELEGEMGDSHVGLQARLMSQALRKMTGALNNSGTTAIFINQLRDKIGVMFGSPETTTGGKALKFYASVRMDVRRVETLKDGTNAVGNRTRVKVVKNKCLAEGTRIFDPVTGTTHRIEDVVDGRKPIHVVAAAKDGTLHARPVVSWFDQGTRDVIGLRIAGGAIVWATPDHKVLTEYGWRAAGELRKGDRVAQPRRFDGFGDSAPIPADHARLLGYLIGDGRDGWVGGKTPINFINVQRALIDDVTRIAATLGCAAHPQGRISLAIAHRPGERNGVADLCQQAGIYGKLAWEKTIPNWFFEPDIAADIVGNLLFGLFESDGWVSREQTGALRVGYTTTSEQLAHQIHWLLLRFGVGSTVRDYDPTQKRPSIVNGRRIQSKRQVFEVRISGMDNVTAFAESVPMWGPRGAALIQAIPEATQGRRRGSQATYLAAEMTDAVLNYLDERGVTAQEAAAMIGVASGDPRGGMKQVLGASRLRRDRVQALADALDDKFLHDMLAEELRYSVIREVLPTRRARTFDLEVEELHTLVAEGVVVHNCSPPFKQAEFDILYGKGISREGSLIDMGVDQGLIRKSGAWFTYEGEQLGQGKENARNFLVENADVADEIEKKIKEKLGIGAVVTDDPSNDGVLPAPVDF

[5] = reduction of Shn3 3'UTR-driven luciferase in osteoblasts – cell-based, Clone20 osteoblasts, firefly luciferase, cherry-picked, dose response (AID 624132); assay type: functional;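 also: firefly luciferase luminescence from reporter carrying the Shn3 3'UTR in osteoblasts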
[6] = target: T2, Replicative DNA helicase DnaB (Mycobacterium tuberculosis, UniProt P9WMR3); assay: DnaB intein splicing inhibitors, dose response, biochemical, cell-free fluorescence (AID 449749); assay type: functional
T2 sequence (P9WMR3 whole entry): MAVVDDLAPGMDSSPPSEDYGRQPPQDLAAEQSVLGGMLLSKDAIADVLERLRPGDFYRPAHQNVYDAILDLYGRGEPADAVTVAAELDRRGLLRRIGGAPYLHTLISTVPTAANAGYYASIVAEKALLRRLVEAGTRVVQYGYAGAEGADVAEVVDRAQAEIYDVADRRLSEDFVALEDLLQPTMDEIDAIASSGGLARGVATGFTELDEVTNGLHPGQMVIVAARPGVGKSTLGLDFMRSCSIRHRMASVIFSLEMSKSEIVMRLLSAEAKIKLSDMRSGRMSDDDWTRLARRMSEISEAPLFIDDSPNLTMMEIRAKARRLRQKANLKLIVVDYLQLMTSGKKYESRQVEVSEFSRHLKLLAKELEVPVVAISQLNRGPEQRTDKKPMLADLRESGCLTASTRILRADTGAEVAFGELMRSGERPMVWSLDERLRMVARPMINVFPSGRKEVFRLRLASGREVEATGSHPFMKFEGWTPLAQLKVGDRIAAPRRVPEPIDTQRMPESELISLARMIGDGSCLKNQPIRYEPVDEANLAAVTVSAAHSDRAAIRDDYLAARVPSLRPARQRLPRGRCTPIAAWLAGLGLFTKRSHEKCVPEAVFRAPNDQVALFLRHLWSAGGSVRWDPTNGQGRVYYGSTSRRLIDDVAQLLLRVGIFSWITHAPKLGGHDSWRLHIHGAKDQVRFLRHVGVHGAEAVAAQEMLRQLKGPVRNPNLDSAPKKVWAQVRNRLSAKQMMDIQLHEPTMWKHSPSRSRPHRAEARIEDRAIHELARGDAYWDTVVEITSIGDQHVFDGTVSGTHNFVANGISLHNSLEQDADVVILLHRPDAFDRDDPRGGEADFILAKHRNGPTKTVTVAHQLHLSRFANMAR

[7] = target: Glucose-6-phosphate 1-dehydrogenase (Homo sapiens, UniProt P11413); assay: inhibition of Homo sapiens G6PD, dose series – biochemical, fluorescence, selectivity assay for P. falciparum G6PD inhibitor project, dose response (AID 504792); assay type: functional
[8] = target: FAD-linked sulfhydryl oxidase ALR (Homo sapiens, UniProt P55789); assay: ALR-catalysed DTT oxidation blockers – biochemical, H2O2 detection, luminescence, cherry-pick, dose response (AID 493248)
Caspase-3 [9] = target: T3, Caspase-3 (Homo sapiens, UniProt P42574); assay type: functional
T3 sequence (P42574 whole entry): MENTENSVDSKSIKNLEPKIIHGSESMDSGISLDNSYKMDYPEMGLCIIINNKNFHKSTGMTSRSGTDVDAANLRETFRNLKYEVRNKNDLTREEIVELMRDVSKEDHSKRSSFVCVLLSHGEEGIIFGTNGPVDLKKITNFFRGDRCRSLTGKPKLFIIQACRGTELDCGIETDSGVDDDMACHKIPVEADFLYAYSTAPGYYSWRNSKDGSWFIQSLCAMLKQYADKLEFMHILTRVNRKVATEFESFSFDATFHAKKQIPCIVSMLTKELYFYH

[10] = target: T4, Sentrin-specific protease 7 (Homo sapiens, UniProt Q9BQF6); assay: inhibition of human SENP7 cleavage activity – biochemical, luminescence, SAR follow-up (AID 504497); assay type: functional
T4 sequence (Q9BQF6 whole entry): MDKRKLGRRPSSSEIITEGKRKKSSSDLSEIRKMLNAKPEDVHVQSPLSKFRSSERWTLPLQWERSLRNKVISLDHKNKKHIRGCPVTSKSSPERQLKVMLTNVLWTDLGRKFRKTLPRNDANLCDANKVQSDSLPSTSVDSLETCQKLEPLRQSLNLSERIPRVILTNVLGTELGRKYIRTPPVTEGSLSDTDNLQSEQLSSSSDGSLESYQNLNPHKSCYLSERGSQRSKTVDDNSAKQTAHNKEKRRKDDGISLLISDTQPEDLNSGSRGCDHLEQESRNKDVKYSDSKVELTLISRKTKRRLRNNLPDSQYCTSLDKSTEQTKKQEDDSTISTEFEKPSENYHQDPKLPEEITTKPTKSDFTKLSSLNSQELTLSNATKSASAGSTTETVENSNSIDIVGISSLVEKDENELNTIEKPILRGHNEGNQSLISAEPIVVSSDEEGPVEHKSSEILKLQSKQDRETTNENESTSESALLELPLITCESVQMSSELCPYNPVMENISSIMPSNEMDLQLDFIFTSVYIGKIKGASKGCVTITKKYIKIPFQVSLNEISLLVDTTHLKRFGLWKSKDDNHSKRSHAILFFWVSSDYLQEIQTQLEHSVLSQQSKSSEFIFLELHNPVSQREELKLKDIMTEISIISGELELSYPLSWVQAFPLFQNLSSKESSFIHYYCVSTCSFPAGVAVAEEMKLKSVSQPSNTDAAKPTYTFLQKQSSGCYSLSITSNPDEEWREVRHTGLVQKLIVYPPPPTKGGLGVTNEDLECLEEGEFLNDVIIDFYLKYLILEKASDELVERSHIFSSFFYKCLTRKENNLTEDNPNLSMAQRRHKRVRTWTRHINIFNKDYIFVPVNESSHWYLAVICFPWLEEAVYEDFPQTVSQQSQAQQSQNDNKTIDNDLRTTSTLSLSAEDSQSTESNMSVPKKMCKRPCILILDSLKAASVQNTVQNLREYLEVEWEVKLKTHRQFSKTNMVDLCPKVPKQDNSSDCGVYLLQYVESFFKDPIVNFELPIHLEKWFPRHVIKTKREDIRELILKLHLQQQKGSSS

[11] = target: T5, Sentrin-specific protease 6 (Homo sapiens, UniProt Q9GZR1); assay type: functional
T5 sequence (Q9GZR1 whole entry): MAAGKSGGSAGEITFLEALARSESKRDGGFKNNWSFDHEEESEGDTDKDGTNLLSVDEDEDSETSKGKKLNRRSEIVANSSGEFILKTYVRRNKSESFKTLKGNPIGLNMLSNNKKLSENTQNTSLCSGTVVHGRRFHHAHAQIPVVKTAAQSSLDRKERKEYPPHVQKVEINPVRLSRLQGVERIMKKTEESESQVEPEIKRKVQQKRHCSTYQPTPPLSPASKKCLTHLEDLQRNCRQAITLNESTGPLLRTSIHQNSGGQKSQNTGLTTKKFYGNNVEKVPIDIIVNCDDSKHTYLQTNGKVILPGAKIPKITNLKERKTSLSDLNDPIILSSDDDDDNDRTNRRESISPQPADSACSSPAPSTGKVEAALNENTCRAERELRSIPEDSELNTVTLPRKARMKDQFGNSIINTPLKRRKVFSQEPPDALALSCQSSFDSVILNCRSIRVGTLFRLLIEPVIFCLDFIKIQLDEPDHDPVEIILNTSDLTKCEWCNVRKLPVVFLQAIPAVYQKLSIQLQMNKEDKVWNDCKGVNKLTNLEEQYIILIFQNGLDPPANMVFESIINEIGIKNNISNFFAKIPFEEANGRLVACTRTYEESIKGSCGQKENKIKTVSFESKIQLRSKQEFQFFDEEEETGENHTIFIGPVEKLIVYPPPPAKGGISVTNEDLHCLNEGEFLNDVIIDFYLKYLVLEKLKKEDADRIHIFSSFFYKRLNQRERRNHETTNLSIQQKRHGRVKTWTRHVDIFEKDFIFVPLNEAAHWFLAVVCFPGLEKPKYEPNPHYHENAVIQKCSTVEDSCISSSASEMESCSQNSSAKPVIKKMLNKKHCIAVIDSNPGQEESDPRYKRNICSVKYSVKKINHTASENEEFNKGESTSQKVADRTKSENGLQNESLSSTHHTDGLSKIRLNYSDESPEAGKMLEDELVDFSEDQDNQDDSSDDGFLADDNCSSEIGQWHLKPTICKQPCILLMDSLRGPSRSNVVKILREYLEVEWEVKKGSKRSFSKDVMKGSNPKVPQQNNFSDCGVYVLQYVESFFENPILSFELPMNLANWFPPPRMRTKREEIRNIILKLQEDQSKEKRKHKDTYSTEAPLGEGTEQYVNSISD

Caspase-3 [12] = target: T3, Caspase-3; assay: SAR Analysis of small molecule inhibitors of Sentrin-specific proteases (SENPs) using a Caspase-3 Selectivity assay. [Related pubchem assays (depositor defined):AID2540, AID2599, AID434973, AID489001]; assay type: functional
[13] = target: T5, Sentrin-specific protease 6; assay: SAR Analysis of small molecule inhibitors of Sentrin-specific protease 6 (SENP6) using a Luminescent assay. [Related pubchem assays (depositor defined):AID2582, AID2599]; assay type: functional
[14] = target: T6, Sentrin-specific protease 8 (Homo sapiens, UniProt Q96LD8); assay type: functional;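 also: luminescence read-out of SENP8 inhibition, dose-response confirmation following an ultra-high-throughput screen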
T6 sequence (Q96LD8 whole entry): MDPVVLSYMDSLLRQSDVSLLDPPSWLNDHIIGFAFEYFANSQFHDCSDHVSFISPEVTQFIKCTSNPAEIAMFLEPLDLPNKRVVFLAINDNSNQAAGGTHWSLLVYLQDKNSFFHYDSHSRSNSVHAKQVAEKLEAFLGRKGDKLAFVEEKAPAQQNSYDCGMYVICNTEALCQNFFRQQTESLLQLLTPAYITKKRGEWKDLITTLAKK

[15] = target: T4, Sentrin-specific protease 7; assay type: functional

Sequence of Glucose-6-phosphate 1-dehydrogenase (P11413 whole entry): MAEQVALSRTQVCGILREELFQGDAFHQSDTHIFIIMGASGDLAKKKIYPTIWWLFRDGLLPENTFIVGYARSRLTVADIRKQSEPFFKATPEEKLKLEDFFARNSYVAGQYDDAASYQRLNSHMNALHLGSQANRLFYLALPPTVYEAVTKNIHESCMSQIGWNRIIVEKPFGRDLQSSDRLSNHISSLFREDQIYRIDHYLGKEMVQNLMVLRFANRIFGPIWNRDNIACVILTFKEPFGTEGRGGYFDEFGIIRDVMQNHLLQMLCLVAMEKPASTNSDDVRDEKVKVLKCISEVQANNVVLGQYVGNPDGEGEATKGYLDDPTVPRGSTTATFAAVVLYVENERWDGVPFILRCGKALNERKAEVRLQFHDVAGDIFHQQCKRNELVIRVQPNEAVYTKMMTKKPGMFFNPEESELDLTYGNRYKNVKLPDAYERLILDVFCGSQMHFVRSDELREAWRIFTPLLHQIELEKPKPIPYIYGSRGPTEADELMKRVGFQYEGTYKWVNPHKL
Sequence of FAD-linked sulfhydryl oxidase ALR (P55789 whole entry): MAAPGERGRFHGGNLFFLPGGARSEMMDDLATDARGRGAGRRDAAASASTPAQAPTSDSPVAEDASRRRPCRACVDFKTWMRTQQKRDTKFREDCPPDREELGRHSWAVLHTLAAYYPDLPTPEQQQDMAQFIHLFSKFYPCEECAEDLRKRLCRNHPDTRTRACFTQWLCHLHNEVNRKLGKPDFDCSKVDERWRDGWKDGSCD

SMILES: O=C(NCc1ccccc1)c1nc(S(=O)(=O)Cc2ccccc2)ncc1Cl
- EC50 (HEK293 [1]): > 59.6 µM (inactive)
- AC50 [2]: 10.8 µM (active)
- AC50 [3]: 20.4 µM (active)
- EC50 (HEK293 [4]): > 2.21 µM (active)
- EC50 (Protein RecA): 4.88 µM (active)
- AC50 [5]: 1.19 µM (active)
- AC50 [6]: 2.72 µM (active)

SMILES: COCCNC(=S)Nc1ccc(N2CCOCC2)c(S(=O)(=O)Nc2ccc(Cl)cc2)c1
- IC50 [7]: > 80 µM (inactive)

SMILES: COc1cc(/N=C/c2c(CO)cnc(C)c2O)cc(OC)c1OC
- IC50 [7]: > 80 µM (inactive)
- AC50 [8]: 3.63 µM (active)

SMILES: Fc1ccc(COc2ccc(C(=S)N3CCCC3)cc2)cc1
- IC50 (Caspase-3 [9]): 7.14 µM (active)
- IC50 [10]: 2.16 µM (active)
- IC50 [11]: 8.99 µM (active)
- IC50 (Caspase-3 [12]): 1.31 µM (active)
- IC50 [13]: 1.68 µM (active)
- IC50 [14]: 2.46 µM (active)
- IC50 [15]: 5.33 µM (active)
